The values below come from patent US20230255972A1, “PYRIMIDINE COMPOUND-CONTAINING COMBINATION TO BE USED IN TUMOR TREATMENT” (TAIHO PHARMACEUTICAL CO., LTD., priority 2020, published 2023).

For one data set, the system named is H1975-EGFRinsSVD cells. Briefly: Growth inhibitory activity against exon 20 insertion mutant EGFR expressing cell line H1975-EGFRinsSVD. The data set is classed as cell-based. The conditions noted are these: Homo sapiens, 72 h; 3 days; read-out: Cell growth inhibitory activity GI 50 value, H1975-EGFRinsSVD cell.
Data set [1] relates to H1975-EGFRinsSVD cell line. Briefly: Antitumor effect (in vivo) on subcutaneous transplantation models of H1975-EGFRinsSVD. Also noted: species or system nude mouse. The conditions noted are these: Days 1-14. As to the method:
Test Example 12 Antitumor Effect Confirmation Test (In Vivo) on Subcutaneous Transplantation Models, into which H1975-EGFRinsSVD Cell Line is Transplanted
The test compound used was the compounds of Examples 2, 11, and 12, and a 0.5% HPMC aqueous solution was used as a control. The compounds of Examples 2, 11 and 12 were orally administered at doses of 25 mg/kg/day, 25 mg/kg/day and 50 mg/kg/day, respectively.
To compare the transition of tumor growth over time by the administration of each test compound, a tumor volume (which is also referred to as “TV” below) was measured at a frequency of twice a week over time. […] A body weight change percentage is also referred to as “BWC” below.
BWCn (%)=((body weight on n^th day)−(body weight on grouping day)]/[(body weight on grouping day)×100

For a further data set, the system named is MDA-MB-468 cells. The data set is described as follows: Growth inhibitory activity against EGFR overexpressing cell line MDA-MB-468. The data set is classed as cell-based. Particulars: Homo sapiens, MDA-MB-468, 72 h, read-out: Cell growth inhibitory activity GI 50 value, MDA-MB-468; 3 days. As to the method:
(§1) Test Example 7 Measurement of Growth Inhibitory Activity Against EGFR Overexpressing Cell Line and Exon 20 Insertion Mutant EGFR Expressing Cell Line
(§2) Growth inhibitory activity against an EGFR overexpressing cell line and an exon 20 insertion mutant EGFR expressing cell line was evaluated using MDA-MB-468 cells (ATCC) as an EGFR overexpressing human breast cancer cell line; NCI-H1975 cells (ATCC) as L858R and T790M mutant EGFR-positive human lung cancer cells; and MCF10A_EGFR cells, MCF10A_EGFR/V769_D770insASV cells, MCF10A_EGFR/D770_N771insSVD cells, and MCF10A_EGFR/H773_V774insNPH cells (Fukushima Medical University) which were cells obtained by introducing the EGFR gene (WT, […], D770_N771insSVD mutant, H773_V774insNPH mutant) into MCF10A cells as human normal mammary gland cells.
(§3) The MDA-MB-468 cells were suspended in Leibovitz's L-15 medium containing 10% inactivated fetal bovine serum. The NCI-H1975 cells were suspended in RPMI-1640 medium containing 10% inactivated fetal bovine serum. The MCF10A_EGFR cells, the MCF10A_EGFR/V769_D770insASV cells, the MCF10A_EGFR/D770_N771insSVD cells, or the MCF10A_EGFR/H773_V774insNPH cells were suspended in DMEM/Ham's F-12 medium (containing L-glutamine, phenol red, HEPES, and sodium pyruvate) containing 10 μg/mL insulin, 500 ng/mL hydrocortisone, 5 μmol/L forskolin, and 5% inactivated horse serum in terms of their final concentrations. Each cell suspension was seeded in each well of a 96-well flat-bottom plate such that the number of cells per well was 500, and was then cultured in a carbon dioxide gas-free culture vessel for the MDA-MB-468 cells and in a 5% carbon dioxide gas-containing culture vessel for the other cells at 37° C. for 1 day. The pyrimidine compound of the present invention was prepared at 1 mM in DMSO and then diluted 1/200 with a medium to prepare a 5 μM solution. […]
(§4) The cells at the start of the culture (day 0) and after the culture (day 3) were counted using CellTiter-Glo(R) 2.0 Reagent (Promega Corp.) according to the protocol recommended by the manufacturer. […]

The subject of data set [2] is MCF10A_EGFR/D770_N771insSVD cells. Briefly: Growth inhibitory activity against MCF10A_EGFR/D770_N771insSVD. The data set is classed as cell-based. The conditions noted are these: Homo sapiens, 72 h; 3 days; read-out: Cell growth inhibitory activity GI 50 value, MCF10A_EGFR/D770_N771insSVD cell. The method, then:
as §1, §2, §3, §4

The subject of data set [3] is MCF10A_EGFR/H773_V774insNPH cells. Briefly: Growth inhibitory activity against MCF10A_EGFR/H773_V774insNPH. The data set is classed as cell-based. Particulars: Homo sapiens, 72 h; 3 days; read-out: Cell growth inhibitory activity GI 50 value, MCF10A_EGFR/H773_V774insNPH cell. As to the method:
as §1, §2, §3, §4

Turning to `C=CC(=O)N1C[C@H](n2c(C#CC)c(C(=O)N[C@H](C)c3ccccc3)c3c(N)ncnc32)C[C@@H]1C` [Example 2, 7-((3R,5S)-1-acryloyl-5-methylpyrrolidin-3-yl)-4-amino-N—((R)-1-phenylethyl)-6-(prop-1-yn-1-yl)-7H-pyrrolo[2,3-d]pyrimidine-5-carboxamide], the GI50 worked out at 0.0095 µM in the data set on H1975-EGFRinsSVD cells, 0.081 µM with MDA-MB-468 cells, 0.0082 µM in data set [2] and 0.016 µM in data set [3]. For the same compound, in data set [1] (25 mg/kg/day po), the “body weight reduction of 20% or more” value is “not observed”.

Consider `C=CC(=O)N1C[C@H](n2c(C#CC3CC3)c(C(=O)N[C@H](C)c3ccccc3)c3c(N)ncnc32)C[C@@H]1C` [Example 11, 7-((3R,5S)-1-acryloyl-5-methylpyrrolidin-3-yl)-4-amino-6-(cyclopropylethynyl)-N—((R)-1-phenylethyl)-7H-pyrrolo[2,3-d]pyrimidine-5-carboxamide], for which the GI50 with H1975-EGFRinsSVD cells came to 0.017 µM; in the data set with MDA-MB-468 cells, 0.099 µM; in data set [2] it was 0.01 µM; in data set [3], 0.018 µM. Moreover, the “body weight reduction of 20% or more” value in data set [1] (25 mg/kg/day po) is listed as “not observed”.

On to `C=CC(=O)N1C[C@H](n2c(C#CC(C)(C)C)c(C(=O)N[C@H](C)c3ccccc3)c3c(N)ncnc32)C[C@@H]1C` [Example 12, 7-((3R,5S)-1-acryloyl-5-methylpyrrolidin-3-yl)-4-amino-6-(3,3-dimethylbut-1-yn-1-yl)-N—((R)-1-phenylethyl)-7H-pyrrolo[2,3-d]pyrimidine-5-carboxamide], for which the GI50 was determined as 0.052 µM with H1975-EGFRinsSVD cells, 0.221 µM with MDA-MB-468 cells, 0.027 µM in data set [2] and 0.05 µM in data set [3]. In addition, in data set [1] (50 mg/kg/day po), the “body weight reduction of 20% or more” value was “not observed”.
